Data reported in ChEMBL document CHEMBL1139099, “Novel trifluoroacetophenone derivatives as malonyl-CoA decarboxylase inhibitors” (Bioorg Med Chem Lett, 2007).
pIC50: −log10 of the molar value.

Biological target: T1, Malonyl-CoA decarboxylase, mitochondrial (Homo sapiens, UniProt O95822)
T1 sequence (O95822 whole entry): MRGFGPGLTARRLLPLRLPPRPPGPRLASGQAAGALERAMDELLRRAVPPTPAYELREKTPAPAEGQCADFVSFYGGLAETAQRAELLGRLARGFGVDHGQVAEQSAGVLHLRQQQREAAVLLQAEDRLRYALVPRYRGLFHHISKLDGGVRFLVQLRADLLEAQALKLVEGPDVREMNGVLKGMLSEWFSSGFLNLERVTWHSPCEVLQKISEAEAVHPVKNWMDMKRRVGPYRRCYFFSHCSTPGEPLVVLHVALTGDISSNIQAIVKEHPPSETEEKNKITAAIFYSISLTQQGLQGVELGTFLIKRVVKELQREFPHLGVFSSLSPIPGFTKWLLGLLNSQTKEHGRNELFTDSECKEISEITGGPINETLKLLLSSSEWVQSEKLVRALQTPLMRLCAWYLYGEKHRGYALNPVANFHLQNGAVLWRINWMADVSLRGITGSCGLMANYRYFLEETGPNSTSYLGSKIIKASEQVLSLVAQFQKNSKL
Assay: Inhibition of MBP fused human MCD

pIC50: 5.64
Structure (SMILES): O=C(NCC1CCCCC1)c1ccc(C(=O)C(F)(F)F)cc1
